target: T1, small-conductance Ca2+-activated K+ channels (SK channels, subtype 2) (Homo sapiens, UniProt Q9H2S1); experiment: whole-cell patch-clamp of ionic current through SK2 channels in HEK293 cells (SC100); format: cell-based; conditions: whole-cell patch-clamp, HEK293 cells expressing SK2 channels; concentration that increases the basal current by 100%
T1 construct: expressed in transfected cells; host or cells: HEK293
Summary of the method: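 Whole-cell patch-clamp recording of current in HEK293 cells expressing SK2 channels. SC100 is the compound concentration that increases basal current by 100%.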

| SC100 (μM) | SMILES |
| --- | --- |
| +++ (+++ means <200 nM) | COc1cc(C#N)cnc1OCc1cc(NC2CCC(F)(F)CC2)nc(-n2ccc(C)n2)c1 [IN11125-008-P1] |
| ++ (++ means 200 nM-1000 nM) | COCCOCc1cc(NC2CCC(F)(F)CC2)nc(-n2ccc(C)n2)c1 [IN11125-012-P1] |
| ++ (++ means 200 nM-1000 nM) | Cc1csc(-c2nc(NC3CCC(F)(F)CC3)cc(OCc3ccon3)n2)n1 [IN11125-013-P1] |
| ++ (++ means 200 nM-1000 nM) | COc1cnc(-c2nc(C)cs2)nc1NC1CCC(F)(F)CC1 [IN11125-014-P1, N-(4,4-difluorocyclohexyl)-5-methoxy-2-(4-methylthiazol-2-yl)pyrimidin-4-amine] |
| + (+ means >1 uM) | Cc1cccc(-c2nccc(NC3CCC(F)(F)CC3)n2)n1 [IN11130-030-P1, N-(4,4-difluorocyclohexyl)-2-(6-methylpyridin-2-yl)pyrimidin-4-amine] |
| +++ (+++ means <200 nM) | COC(=O)NCc1cc(NC2CCC(F)(F)CC2)nc(-c2nc(C)cs2)c1 [IN11130-047-P1] |
| +++ (+++ means <200 nM) | Cc1csc(-c2cc(C(C)O)cc(NC3CCC(F)(F)CC3)n2)n1 (stereo not drawn) [IN11130-051-P1, 1-(2-((4,4-difluorocyclohexyl)amino)-6-(4-methylthiazol-2-yl)pyridin-4-yl) ethan-1-ol] |
| + (+ means >1 uM) | Cc1csc(-c2ncc(C)c(NC3CCC(F)(F)CC3)n2)n1 [IN11130-076-P1, N-(4,4-difluorocyclohexyl)-5-methyl-2-(4-methylthiazol-2-yl)pyrimidin-4-amine] |
| + (+ means >1 uM) | Cc1csc(-c2nc(NC3CCC(F)(F)CC3)cc(C(C)n3cccn3)n2)n1 (stereo not drawn) [IN11133-002-P1, 6-(1-(1H-pyrazol-1-yl)ethyl)-N-(4,4-difluorocyclohexyl)-2-(4-methylthiazol-2-yl)pyrimidin-4-amine] |
| + (+ means >1 uM) | Cc1ccn(-c2nc(N[C@@H]3CCCC[C@H]3F)cc(N3CCOCC3)n2)n1 [IN11133-031-P1] |
| ++ (++ means 200 nM-1000 nM) | CC(=O)N(C)Cc1cc(NC2CCC(F)(F)CC2)nc(-c2nc(C)cs2)c1 [IN11133-068-P1] |
| + (+ means >1 uM) | Cc1cc(NC2CCC(F)(F)CC2)nc(-n2ccc(OC(C)C)n2)n1 [IN11133-094-P1, N-(4,4-difluorocyclohexyl)-2-(3-isopropoxy-1H-pyrazol-1-yl)-6-methylpyrimidin-4-amine] |
| ++ (++ means 200 nM-1000 nM) | OCc1cc(NC2CCC(F)(F)CC2)nc(-n2ccc(C(F)(F)F)n2)c1 [IN11133-097-P1, (2-((4,4-difluorocyclohexyl)amino)-6-(3-(trifluoromethyl)-1H-pyrazol-1-yl)pyridin-4-yl) methanol] |
| + (+ means >1 uM) | Cc1cc(NC2CCC(F)(F)CC2)nc(-c2cccc(C)n2)c1 [IN11137-041-P1, N-(4,4-difluorocyclohexyl)-4,6′-dimethyl-[2,2′-bipyridin]-6-amine] |
| ++ (++ means 200 nM-1000 nM) | OCc1cc(NC2CCC(F)(F)CC2)nc(-n2ccc(C3CC3)n2)n1 [IN11137-074-P1, (2-(3-cyclopropyl-1H-pyrazol-1-yl)-6-((4,4-difluorocyclohexyl)amino)pyrimidin-4-yl) methanol] |
| + (+ means >1 uM) | NC(=O)OCc1cc(N(C(N)=O)C2CCC(F)(F)CC2)nc(-n2ccc(C3CC3)n2)n1 [IN11137-079-P1, (2-(3-cyclopropyl-1H-pyrazol-1-yl)-6-(1-(4,4-difluorocyclohexyl)ureido)pyrimidin-4-yl)methyl carbamate] |
| + (+ means >1 uM) | CC(=O)c1cc(NC2CCCCC2(F)F)nc(-c2nc(C)cs2)n1 (stereo not drawn) [IN11140-081-P1, 1-(6-((2,2-difluorocyclohexyl)amino)-2-(4-methylthiazol-2-yl)pyrimidin-4-yl) ethan-1-one] |
| + (+ means >1 uM) | Cc1csc(-c2nc(NC3CCCCC3(F)F)cc(C(C)O)n2)n1 (stereo not drawn) [IN11140-083-P1, 1-(6-((2,2-difluorocyclohexyl)amino)-2-(4-methylthiazol-2-yl)pyrimidin-4-yl) ethan-1-ol] |
| + (+ means >1 uM) | Cc1csc(-c2nc(NC3CCCCC3(F)F)cc(C(C)F)n2)n1 (stereo not drawn) [IN11140-089-P1, N-(2,2-difluorocyclohexyl)-6-(1-fluoroethyl)-2-(4-methylthiazol-2-yl)pyrimidin-4-amine] |

Continued, compound first:

| SMILES | SC100 (μM) |
| --- | --- |
| CNC(=O)Oc1c(NC2CCC(F)(F)CC2)nc(-c2nc(C)cs2)[nH]c1=O [IN11125-006-P1, 4-((4,4-difluorocyclohexyl)amino)-6-hydroxy-2-(4-methylthiazol-2-yl)pyrimidin-5-yl methylcarbamate] | + (+ means >1 uM) |
| COc1nc(-c2nc(C)cs2)nc(NC2CCC(F)(F)CC2)c1OC [IN11125-010-P1] | ++ (++ means 200 nM-1000 nM) |
| COc1cc(NC2CCC(F)(F)C2)nc(-c2nc(C)cs2)n1 (stereo not drawn) [IN11125-028-P1] | + (+ means >1 uM) |
| COC(=O)NCCOc1c(NC2CCC(F)(F)CC2)nc(-c2nc(C)cs2)nc1OC [IN11125-052-P1, methyl (2-((4-((4,4-difluorocyclohexyl)amino)-6-methoxy-2-(4-methylthiazol-2-yl)pyrimidin-5-yl)oxy)ethyl)carbamate] | + (+ means >1 uM) |
| COC(=O)NCCOc1c(NC2CCC(F)(F)CC2)nc(-c2nc(C)cs2)[nH]c1=O [IN11125-065-P1, methyl (2-((4-((4,4-difluorocyclohexyl)amino)-6-hydroxy-2-(4-methylthiazol-2-yl)pyrimidin-5-yl)oxy)ethyl)carbamate] | + (+ means >1 uM) |
| COc1nc(-c2nc(C)cs2)nc(NC2CCC(F)(F)CC2)c1OCc1cnco1 [IN11125-091-P1, N-(4,4-difluorocyclohexyl)-6-methoxy-2-(4-methylthiazol-2-yl)-5-(oxazol-5-ylmethoxy)pyrimidin-4-amine] | + (+ means >1 uM) |
| Cc1csc(-c2ncc(O)c(NC3CCC(F)(F)CC3)n2)n1 [IN11125-095-P1, 4-((4,4-difluorocyclohexyl)amino)-2-(4-methylthiazol-2-yl)pyrimidin-5-ol] | + (+ means >1 uM) |
| Cc1ccn(-c2cc3c(c(N4CCOCC4)n2)CCN3)n1 [IN11130-005-P1, 4-(6-(3-methyl-1H-pyrazol-1-yl)-2,3-dihydro-1H-pyrrolo[3,2-c]pyridin-4-yl)morpholine] | + (+ means >1 uM) |
| Cc1cccc(-c2nc(NC3CCC(F)(F)CC3)cc(OCc3cnco3)n2)n1 [IN11130-031-P2, N-(4,4-difluorocyclohexyl)-2-(6-methylpyridin-2-yl)-6-(oxazol-5-ylmethoxy)pyrimidin-4-amine] | + (+ means >1 uM) |
| CC(=O)c1cc(NC2CCC(F)(F)CC2)nc(-c2nc(C)cs2)c1 [IN11130-053-P1, 1-(2-((4,4-difluorocyclohexyl)amino)-6-(4-methylthiazol-2-yl)pyridin-4-yl) ethan-1-one] | +++ (+++ means <200 nM) |
| COC(=O)N1CC=C(c2cc(NC3CCC(F)(F)CC3)nc(-n3ccc(C)n3)c2)CC1 [IN11130-077-P1, methyl 2′-((4,4-difluorocyclohexyl)amino)-6′-(3-methyl-1H-pyrazol-1-yl)-3,6-dihydro-[4,4′-bipyridine]-1(2H)-carboxylate] | + (+ means >1 uM) |
| COc1cc(NC2CC(F)(F)C2)nc(-c2nc(C)cs2)n1 [IN11133-014-P1] | + (+ means >1 uM) |
| Cc1csc(-c2nc(NC3CC(F)(F)C3)cc(OC3CCOCC3)n2)n1 [IN11133-020-P1, N-(3,3-difluorocyclobutyl)-2-(4-methylthiazol-2-yl)-6-((tetrahydro-2H-pyran-4-yl)oxy) pyrimidin-4-amine] | + (+ means >1 uM) |
| Cc1csc(-c2cc(CNC=O)cc(NC3CCC(F)(F)CC3)n2)n1 [IN11133-037-P1] | +++ (+++ means <200 nM) |
| Cc1csc(-c2cc(CN)cc(NC3CCC(F)(F)CC3)n2)n1 [IN11133-049-P1, 4-(aminomethyl)-N-(4,4-difluorocyclohexyl)-6-(4-methylthiazol-2-yl)pyridin-2-amine] | ++ (++ means 200 nM-1000 nM) |
| Cc1csc(-c2cc(COC(N)=O)cc(NC3CCC(F)(F)CC3)n2)n1 [IN11133-061-P1, (2-((4,4-difluorocyclohexyl)amino)-6-(4-methylthiazol-2-yl)pyridin-4-yl)methyl carbamate] | +++ (+++ means <200 nM) |
| Cc1csc(-c2cc(CN(C)C=O)cc(NC3CCC(F)(F)CC3)n2)n1 [IN11133-069-P1] | +++ (+++ means <200 nM) |
| COc1cc(NC2CCCSC2)nc(-c2nc(C)cs2)n1 (stereo not drawn) [IN11137-018-P1] | + (+ means >1 uM) |
| CCc1cc(NC2CCC(F)(F)CC2)nc(-n2ccc(C3CC3)n2)n1 [IN11137-072-P1, 2-(3-cyclopropyl-1H-pyrazol-1-yl)-N-(4,4-difluorocyclohexyl)-6-ethylpyrimidin-4-amine] | ++ (++ means 200 nM-1000 nM) |
| Cc1cc(NC2CCC(F)(F)CC2)nc(-n2[nH]c(=O)cc2N)n1 [IN11140-007-P1, 5-amino-1-(4-((4,4-difluorocyclohexyl)amino)-6-methylpyrimidin-2-yl)-1,2-dihydro-3H-pyrazol-3-one] | + (+ means >1 uM) |
| Cc1csc(-c2nc(N[C@@H]3CCCC[C@H]3O)cc(N3CCOCC3)n2)n1 [IN11140-058-P1] | + (+ means >1 uM) |
| Cc1ccn(-c2nc(NC3CCCCC3(F)F)cc(N3CCOCC3)n2)n1 (stereo not drawn) [IN11140-062-P1] | + (+ means >1 uM) |
| COc1cc(NC2CCCCC2(F)F)nc(-c2nc(C)cs2)n1 (stereo not drawn) [IN11140-063-P1] | + (+ means >1 uM) |
| Cc1csc(-c2nc(NC3CCCCC3=O)cc(N3CCOCC3)n2)n1 (stereo not drawn) [IN11140-065-P1, 2-((2-(4-methylthiazol-2-yl)-6-morpholinopyrimidin-4-yl)amino)cyclohexan-1-one] | + (+ means >1 uM) |
| Cc1csc(-c2nc(NC3CCCCC3(F)F)cc(N3CCOCC3)n2)n1 (stereo not drawn) [IN11140-066-P1] | + (+ means >1 uM) |
| Cc1csc(-c2nc(N[C@@H]3CCCC[C@H]3F)cc(N3CCOCC3)n2)n1 [IN11140-086-P1] | + (+ means >1 uM) |
